Test results reported in PMC7587962, “Evaluation of Cytotoxicity and α-Glucosidase Inhibitory Activity of Amide and Polyamino-Derivatives of Lupane Triterpenoids” (Molecules, 2020).

Experiments:
[1] = system: RXF 393; assay: NCI-60 SRB screen: renal cancer RXF 393; assay type: cell-based, human; settings: RXF 393
[2] = system: LOX IMVI; assay: NCI-60 SRB screen: melanoma LOX IMVI; assay type: cell-based, human
[3] = system: IGROV1; assay: NCI-60 SRB screen: ovarian cancer IGROV1; assay type: cell-based, human; settings: IGROV1
[4] = system: OVCAR-5; assay: NCI-60 SRB screen: ovarian cancer OVCAR-5; assay type: cell-based, human; settings: OVCAR-5
[5] = system: MOLT-4; assay: NCI-60 SRB screen: leukemia MOLT-4; assay type: cell-based; settings: Homo sapiens, 48 h, MOLT-4
[6] = system: UACC-62; assay: NCI-60 SRB screen: melanoma UACC-62; assay type: cell-based, human; settings: UACC-62
[7] = system: CNS cancer subpanel; assay: NCI-60 screen, subpanel CNS cancer
[8] = system: ACHN; assay: NCI-60 SRB screen: renal cancer ACHN; assay type: cell-based, human
[9] = system: HOP-92; assay: NCI-60 SRB screen: non-small cell lung cancer HOP-92; assay type: cell-based, human; settings: HOP-92
[10] = system: MDA-MB-231/ATCC; assay: NCI-60 SRB screen: breast cancer MDA-MB-231/ATCC; assay type: cell-based; settings: Homo sapiens, 48 h
[11] = system: NCI/ADR-RES; assay: NCI-60 SRB screen: ovarian cancer NCI/ADR-RES; assay type: cell-based, human
[12] = system: SF-295; assay: NCI-60 SRB screen: CNS cancer SF-295; assay type: cell-based, human; settings: SF-295
[13] = system: CCRF-CEM; assay: NCI-60 SRB screen: leukemia CCRF-CEM; assay type: cell-based; settings: Homo sapiens, 48 h
[14] = system: HL-60(TB); assay: NCI-60 SRB screen: leukemia HL-60(TB); assay type: cell-based; settings: Homo sapiens, 48 h, HL-60(TB)
[15] = system: Prostate cancer subpanel; assay: NCI-60 screen, subpanel Prostate cancer
[16] = system: TK-10; assay: NCI-60 SRB screen: renal cancer TK-10; assay type: cell-based, human; settings: TK-10
[17] = system: MCF7; assay: NCI-60 SRB screen: breast cancer MCF7; assay type: cell-based; settings: Homo sapiens, 48 h, MCF7
[18] = system: OVCAR-8; assay: NCI-60 SRB screen: ovarian cancer OVCAR-8; assay type: cell-based, human; settings: OVCAR-8
[19] = system: NCI-H460; assay: NCI-60 SRB screen: non-small cell lung cancer NCI-H460; assay type: cell-based; settings: Homo sapiens, 48 h, NCI-H460
[20] = system: M14; assay: NCI-60 SRB screen: melanoma M14; assay type: cell-based, human; settings: M14
[21] = system: RPMI-8226; assay: NCI-60 SRB screen: leukemia RPMI-8226; assay type: cell-based; settings: Homo sapiens, 48 h, RPMI-8226
[22] = system: A498; assay: NCI-60 SRB screen: renal cancer A498; assay type: cell-based, human; settings: A498
[23] = system: HCT-116; assay: NCI-60 SRB screen: colon cancer HCT-116; assay type: cell-based; settings: Homo sapiens, 48 h, HCT-116
[24] = system: COLO 205; assay: NCI-60 SRB screen: colon cancer COLO 205; assay type: cell-based, human; settings: COLO 205
[25] = system: HS 578T; assay: NCI-60 SRB screen: breast cancer HS 578T; assay type: cell-based, human; settings: HS 578T
[26] = system: MDA-MB-435; assay: NCI-60 SRB screen: melanoma MDA-MB-435; assay type: cell-based, human; settings: MDA-MB-435
[27] = system: U251; assay: NCI-60 SRB screen: CNS cancer U251; assay type: cell-based; settings: Homo sapiens, U251
[28] = system: SNB-75; assay: NCI-60 SRB screen: CNS cancer SNB-75; assay type: cell-based, human; settings: SNB-75
[29] = system: DU-145; assay: NCI-60 SRB screen: prostate cancer DU-145; assay type: cell-based, human; settings: DU-145
[30] = system: SN12C; assay: NCI-60 SRB screen: renal cancer SN12C; assay type: cell-based, human
[31] = system: UACC-257; assay: NCI-60 SRB screen: melanoma UACC-257; assay type: cell-based, human; settings: UACC-257
[32] = system: 60 human tumor cell lines; settings: single dose 10 µM
[33] = system: SK-MEL-5; assay: NCI-60 SRB screen: melanoma SK-MEL-5; assay type: cell-based, human; settings: SK-MEL-5
[34] = system: OVCAR-3; assay: NCI-60 SRB screen: ovarian cancer OVCAR-3; assay type: cell-based, human; settings: OVCAR-3
[35] = system: Breast cancer subpanel; assay: NCI-60 screen, subpanel Breast cancer
[36] = system: Colon Cancer subpanel; assay: NCI-60 screen, subpanel Colon Cancer
[37] = system: SR; assay: NCI-60 SRB screen: leukemia SR; assay type: cell-based; settings: Homo sapiens, 48 h
[38] = Homo sapiens, five concentrations, 48 h, SRB, read-out: GI50
[39] = single dose 10 µM, read-out: Percentage Cell Growth
[40] = five concentrations, SRB, read-out: GI50

C=C(C)[C@@H]1CC[C@]2(C(=O)NCCCN)CC[C@]3(C)[C@H](CC[C@@H]4[C@@]5(C)CCC(=O)C(C)(C)[C@@H]5CC[C@]43C)[C@@H]12 [Compound 10]
GI50 [1, 38]: 17.1 µM
Percentage Cell Growth ([1]; single dose 10 µM): −42.28%
GI50 [2, 38]: 25.5 µM
Percentage Cell Growth ([2]; single dose 10 µM): 1.37%
GI50 ([3]; Homo sapiens, IGROV-1, five concentrations, 48 h, SRB, read-out: GI50): 21.5 µM
Percentage Cell Growth ([3]; single dose 10 µM): −6.94%
GI50 [4, 38]: 14.8 µM
Percentage Cell Growth ([4]; single dose 10 µM): −47.68%
activity at 10 µM [5, 39]: 2.76%
GI50 [5, 40]: 12.9 µM
GI50 [6, 38]: 27.4 µM
Percentage Cell Growth ([6]; single dose 10 µM): −22.62%
MID b, average sensitivity of all cell line of particular subpanel [7]: 23.00 µM
Selectivity, ratio MID a: MID b [7]: 0.89
GI50 [8, 38]: 21.7 µM
Percentage Cell Growth ([8]; single dose 10 µM): −49.24%
Percentage Cell Growth ([9]; single dose 10 µM): −55.49%
GI50 [9, 38]: 10.8 µM
activity at 10 µM ([10]; MDA-MB-231/ATCC, single dose 10 µM, read-out: Percentage Cell Growth): -47.8%
GI50 ([10]; MDA-MB-231, MDA-MB-31/ATCC, five concentrations, SRB, read-out: GI50): 21.1 µM
GI50 [11, 38]: 24.8 µM
Percentage Cell Growth ([11]; single dose 10 µM): −9.52%
GI50 [12, 38]: 22.6 µM
Percentage Cell Growth ([12]; single dose 10 µM): −26.39%
activity at 10 µM [13, 39]: 1.39%
GI50 [13, 40]: 22.1 µM
activity at 10 µM [14, 39]: 1.25%
GI50 [14, 40]: 16.5 µM
MID b, average sensitivity of all cell line of particular subpanel [15]: 15.05 µM
Selectivity, ratio MID a: MID b [15]: 1.36
GI50 [16, 38]: 23.9 µM
Percentage Cell Growth ([16]; single dose 10 µM): −32.23%
activity at 10 µM [17, 39]: -8.46%
GI50 [17, 40]: 10.7 µM
GI50 [18, 38]: 27.7 µM
Percentage Cell Growth ([18]; single dose 10 µM): −3.81%
activity at 10 µM [19, 39]: -43.2%
GI50 [19, 40]: 14 µM
GI50 [20, 38]: 24.7 µM
Percentage Cell Growth ([20]; single dose 10 µM): 5.07%
activity at 10 µM [21, 39]: -6.66%
GI50 [21, 40]: 17.2 µM
Percentage Cell Growth ([22]; single dose 10 µM): −44.82%
GI50 [22, 38]: 22.9 µM
activity at 10 µM [23, 39]: 1.97%
GI50 [23, 40]: 13.9 µM
Percentage Cell Growth ([24]; single dose 10 µM): 7.82%
GI50 [24, 38]: 21 µM
Percentage Cell Growth ([25]; single dose 10 µM): −4.98%
GI50 [25, 38]: 40.5 µM
GI50 [26, 38]: 28.7 µM
Percentage Cell Growth ([26]; single dose 10 µM): −32.41%
activity at 10 µM ([27]; U-251, 48 h, single dose 10 µM, read-out: Percentage Cell Growth): -13.8%
GI50 ([27]; U-251, five concentrations, 48 h, SRB, read-out: GI50): 17.7 µM
GI50 [28, 38]: 32.1 µM
Percentage Cell Growth ([28]; single dose 10 µM): −51.56%
Percentage Cell Growth ([29]; single dose 10 µM): −100.00%
GI50 [29, 38]: 17.5 µM
GI50 [30, 38]: 20.8 µM
Percentage Cell Growth ([30]; single dose 10 µM): −34.74%
GI50 [31, 38]: 20.6 µM
Percentage Cell Growth ([31]; single dose 10 µM): −46.67%
cancer cell lethality, range of percentage growth ([32]; cell lines with negative growth): −2.14% to −100%
cases of cancer cell lethality ([32]; number of cell lines): 48
GI50 [33, 38]: 19.4 µM
Percentage Cell Growth ([33]; single dose 10 µM): −23.93%
GI50 [34, 38]: 15.7 µM
Percentage Cell Growth ([34]; single dose 10 µM): −45.89%
MID b, average sensitivity of all cell line of particular subpanel [35]: 20.30 µM
Selectivity, ratio MID a: MID b [35]: 1.01
MID b, average sensitivity of all cell line of particular subpanel [36]: 17.82 µM
Selectivity, ratio MID a: MID b [36]: 1.15
activity at 10 µM [37, 39]: 23.7%
GI50 [37, 40]: 9.05 µM
